Source: article PMC6014988, “Precision therapeutic targeting of human cancer cell motility” (Nature Communications, 2018)

Assays:
[1] = Three-day MTT cell growth inhibition assay, 1532CPTX; assay type: cell-based, human; conditions: human, 1532CPTX cells
1532CPTX = test: as above; assay type: cell-based, human; conditions: Homo sapiens, 72 h, 3 days
PC3-M cells = test: Boyden chamber cell invasion assay, PC3-M cells; assay type: cell-based, human
Description: Boyden chamber cell invasion assays were performed as previously described by us[30], using either denatured collagen (BD Biosciences) or type IV human collagen (BD Biosciences), with all experiments repeated, each in N = 4 replicates. In some experiments, as indicated, cells were transfected with an expression plasmid, using Lipofectamine 2000™ (Invitrogen), or with siRNA, using DharmaFect Duo (Thermo Scientific) and co-transfected with β-Galactosidase (Plasmid pCMV•SPORT-βgal; Life Technology). […]
For cell invasion, PC3-M cells […]
were treated with 10 µM compound for a total of 3 days, and cell invasion assays were run at the end of the 3 day period, in the presence of compound. Values are the mean±SEM of three separate experiments, each run in replicates of N=3. […]
assays were performed with PC3-M cells. Values are the mean±SEM of a single experiment, in replicates of N=4, repeated at least once (also N=4). […]

[2] = system: human breast cancer LM2-4H2N cells; test: Breast cancer orthotopic implantation and resection survival model; assay type: in vivo, mouse; conditions: 25 mg/kg oral gavage five times per week, post-surgery adjuvant setting
Description: Breast cancer: orthotopic implantation: Orthotopic implantation of 2 × 10^6 dTomato-LM2-4H2N cells in matrigel:PBS human breast cancer cells into 5–6 week old female SCID-Beige mice (Taconic), followed by resection of resultant primary tumor, provides a model wherein survival is dictated by metastatic burden, and was performed as described. KBU2046 treatment by oral gavage 5 days per week began 4 weeks after resection, with weekly IVIS imaging. Animals were excluded from the analysis if they died and/or met the criteria for euthanasia in the 7 day post-operative period. Experimental groups were randomly assigned based upon size of primary tumor before treatment, in and manner that ensured equal distribution of tumor sizes across treatment groups.

[3] = target: T1, CDC37/HSP90β heterocomplex (Homo sapiens, UniProt P08238+Q16543); test: DARTS assay with CDC37 and HSP90β combined; assay type: binding
T1 construct: made in house; host or cells: E. coli (Rosetta BL-21 for HSP90β, BL-21 DE-3 for CDC37)
T1 sequence (P08238 whole entry): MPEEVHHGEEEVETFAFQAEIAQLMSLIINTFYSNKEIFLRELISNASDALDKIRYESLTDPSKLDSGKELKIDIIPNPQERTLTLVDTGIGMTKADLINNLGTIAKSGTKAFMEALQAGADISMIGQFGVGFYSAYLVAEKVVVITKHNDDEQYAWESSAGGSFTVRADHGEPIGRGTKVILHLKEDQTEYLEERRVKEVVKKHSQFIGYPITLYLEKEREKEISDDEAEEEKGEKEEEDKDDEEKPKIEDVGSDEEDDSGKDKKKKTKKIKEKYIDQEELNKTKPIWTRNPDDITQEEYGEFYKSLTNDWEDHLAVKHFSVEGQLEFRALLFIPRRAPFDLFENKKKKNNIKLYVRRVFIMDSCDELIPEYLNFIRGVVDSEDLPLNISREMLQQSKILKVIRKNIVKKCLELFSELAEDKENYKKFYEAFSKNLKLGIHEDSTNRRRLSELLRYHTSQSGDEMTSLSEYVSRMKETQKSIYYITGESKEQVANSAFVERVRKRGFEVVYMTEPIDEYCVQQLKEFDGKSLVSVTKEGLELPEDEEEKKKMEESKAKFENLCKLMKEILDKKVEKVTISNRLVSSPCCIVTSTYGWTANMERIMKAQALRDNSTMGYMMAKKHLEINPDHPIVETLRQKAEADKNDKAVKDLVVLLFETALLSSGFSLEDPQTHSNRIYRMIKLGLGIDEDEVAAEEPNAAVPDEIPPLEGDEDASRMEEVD
T1 sequence (Q16543 whole entry): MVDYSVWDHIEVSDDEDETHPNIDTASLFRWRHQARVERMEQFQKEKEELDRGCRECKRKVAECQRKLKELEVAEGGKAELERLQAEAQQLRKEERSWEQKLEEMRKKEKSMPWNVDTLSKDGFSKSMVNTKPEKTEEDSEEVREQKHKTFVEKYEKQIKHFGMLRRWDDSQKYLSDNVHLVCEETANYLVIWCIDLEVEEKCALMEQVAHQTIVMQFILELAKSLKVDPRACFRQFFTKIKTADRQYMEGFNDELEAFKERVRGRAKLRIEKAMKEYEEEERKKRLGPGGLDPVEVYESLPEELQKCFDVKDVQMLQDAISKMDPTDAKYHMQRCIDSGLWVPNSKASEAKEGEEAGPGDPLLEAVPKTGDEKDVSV
Description: Fig. 5 KBU2046 stabilizes CDC37/HSP90β heterocomplexes. a KBU2046 stabilizes HSP90β/CDC37 heterocomplexes in a DARTS assay. Equimolar amounts of HSP90β and CDC37 protein were pre-incubated with KBU2046, and resultant thermolysin reaction products were detected by silver stain following SDS-PAGE. […] Atoms within 5 angstroms of KBU2046 are colored by element (carbon, green; nitrogen, blue; oxygen, red). d Potential surface of the whole CDC37/HSP90β dimer (color code: green—HSP90β; gray—CDC37; cyan—Arg167 from CDC37 bisecting the larger pocket and creating a new cleft into which KBU2046 binds)
Fluorescent thermal shift, isothermal titration calorimetry, and biolayer interferometry assays[46] were all performed as described by us using MEK4EE (37-399, S257E, T261E) cloned into pMCSG7 and KRX Competent E. coli cells (Promega Inc.) and above denoted full-length HSP90B and CDC37 vectors and Rosetta BL-21 and BL-21 DE-3 competent E. coli cells, respectively. DARTS assays were conducted as described, using equimolar amounts of CDC37 and HSP90β, thermolysin digestion, and silver stain visualization (ProteoSilver Silver Stain Kit, Sigma-Aldrich).

[4] = target: T2, client kinase binding to CDC37/HSP90β heterocomplexes in HEK293T cells (Homo sapiens, UniProt P08238+Q16543); test: LUMIER assay of client kinase binding; assay type: cell-based
T2 construct: expressed in transfected cells; host or cells: HEK293T
T2 sequence (P08238 whole entry): as the sequence (P08238 whole entry) above
T2 sequence (Q16543 whole entry): as the sequence (Q16543 whole entry) above
Description: The LUMIER assay was performed as described, using reagents generously provided by that group.
Supplementary Figures 17. KBU2046-mediated changes in the signature of client proteins bound to HSP90β/CDC37 mediate effects upon cell motility.
LUMIER assay (a). HEK293T cells stably transfected with HSP90β-luciferase were transfected with 1 of 420 different FLAG-tagged protein kinases, treated with 10 µM KBU2046 for 3 days, and LUMIER assays performed as described 12. All experiments had N = 5 vehicle treated control plus N = 5 KBU2046 treated separate wells of cells. Those yielding a t-test p value <0.05 […]
in experiment #1, or those whose values were at or below baseline, were repeated in experiment […]
hetercomplex association with KBU2046 treatment in the same direction in both experiments were selected. Of 420 kinase proteins tested, 17 (4%) met these criteria (graphically depicted in manuscript Fig. 6a). For these 17 kinases, the experiment was repeated except that HEK293T cells were treated with TGFβ for the last 24 hrs of the 3 day incubation (graphically depicted in manuscript Fig. 6b). Wound healing assay (b-d). […]

O=C1c2ccccc2OCC1c1ccc(F)cc1 (racemic) [KBU2046, (±)-3(4-fluorophenyl)chroman-4-one]
viability at 3 days, 50 µM [1]: 99.4%
IC20 (1532CPTX): > 50 µM
IC50 (1532CPTX): > 50 µM
anti-invasion efficacy under TGFβ stimulation (PC3-M cells; PC3-M cells pretreated, then ± TGFβ): retains efficacy
anti-invasion activity (PC3-M cells; PC3-M cells, 10 µM compound, 3 days): anti-invasive efficacy at least equal
survival [2]: significantly prolonged the survival
concentration at which effects were evident ([3]; CDC37 band increased, HSP90β degradation product decreased): 10 nM
protection from thermolysin digestion ([3]; equimolar HSP90β and CDC37): protected both proteins from digestion
number of kinases with decreased binding ([4]; 10 µM, 3 days): 7
number of kinases with increased binding ([4]; 10 µM, 3 days): 10
RAF1 binding to complexes ([4]; TGFβ-treated cells): decreased binding
RIPK1 binding to complexes ([4]; TGFβ-treated cells): decreased
SGK3 binding to complexes ([4]; TGFβ-treated cells): increased
share of client proteins with affected binding ([4]; as stated in rebuttal letter): 1%
CK2 binding to the HSP90β/CDC37 heterocomplex ([4]; in cells): not alter the binding of CK2
share of kinases with significantly changed binding ([4]; of 420 kinase proteins screened): 4%
number of kinases with significantly changed binding ([4]; of 420 kinase proteins screened, 10 µM, 3 days): 17
